Patent publication US8637664B2, “Alkyl 4- [4- (5-oxo-2,3,5, 11a-tetrahydo-5H-pyrrolo [2, 1-c] [1,4] benzodiazepine-8-yloxy)-butyrylamino]-1H-pyrrole-2-carboxylate derivatives and related compounds for the treatment of a proliferative disease” (Spirogen SARL, priority 2005, dated 2014)

Columns and labels:
calf thymus DNA (CT-DNA) = assay: DNA thermal denaturation (melting) studies; type: binding; settings: CT-DNA 100 μM DNAp, compound 20 μM, 37 °C; for Induced ΔTm after incubation 0 hours: pH 7.00, 0 hours; for Induced ΔTm after incubation 4 hours: pH 7.00, 4 hours; for Induced ΔTm after incubation 18 hours: pH 7.00, 18 hours; for Induced ΔTm after incubation 72 hours: pH 7.00, 72 hours
Method: The PBD agents were subjected to DNA thermal melting (denaturation) studies (Gregson, S. J., et al., Journal of Medicinal Chemistry, 44(5), 737-748 (2001); Jones, G. B., et al., Anti-Cancer Drug Design, 5(3), 249-264 (1990); McConnaughie, A. W. and; Jenkins, T. C. Journal of Medicinal Chemistry, 38(18), 3488-3501 (1995)) using calf thymus DNA (CT-DNA, type-1, highly polymerized sodium salt; 42% G+C [Sigma]) at a fixed 100 μM (DNAp=50 μM bp) concentration, determined using an extinction coefficient of 6600 (M phosphate)^−1 cm^−1 at 260 nm (Manzini, G., et al., Nucleic Acids Research, 11(24), 8861-8876 (1983)). Solutions were prepared in pH 7.00±0.01 aqueous buffer containing 10 mM NaH2PO4/Na2HPO4 and 1 mM EDTA. Working solutions containing CT-DNA and the test compound (20 μM) were incubated at 37.0±0.1° C. for 0 to 18 hours using an external water bath. Samples were monitored at 260 nm using a Varian-Cary 400 Bio spectrophotometer fitted with a Peltier heating accessory. Heating was applied at a rate of 1° C./min in the 45 to 98° C. temperature range, with optical and temperature data sampling at 200 ms intervals. A separate experiment was carried out using buffer alone, and this baseline was subtracted from each DNA melting curve before data treatment. Optical data were imported into the Origin 5 program (MicroCal Inc., Northampton, Mass.) for analysis. DNA helix→coil transition temperatures (Tm) were determined at the midpoint of the normalized melting profiles using a published analytical procedure (Jones, G. B., et al., Anti-Cancer Drug Design, 5(3), 249-264 (1990)). Results are given in table 1 as the mean±standard deviation from at least three determinations. Ligand-induced alterations in DNA melting behaviour (ΔTm) are given by ΔTm=Tm(DNA+ligand)−Tm(DNA), where the Tm value determined for free CT-DNA is 67.82±0.06° C. (averaged from >90 runs). All PBD compounds were dissolved in HPLC-grade MeOH to give working solutions containing ≦0.6% v/v MeOH; Tm results were corrected for the effects of MeOH co-solvent by using a linear correction term.
The above method was also carried out on the compounds of example 2, with all compounds being incubated for up to 72 hours.

[1] = test system: K562 human chronic myeloid leukaemia cells; assay: In vitro cytotoxicity, MTT assay; type: cell-based; settings: K562, 1 hour drug exposure, MTT after 4 days
Method: K562 human chronic myeloid leukaemia cells were maintained in RPM1 1640 medium supplemented with 10% fetal calf serum and 2 mM glutamine at 37° C. in a humidified atmosphere containing 5% CO2 and were incubated with a specified dose of drug for 1 hour at 37° C. in the dark. The incubation was terminated by centrifugation (5 min, 300 g) and the cells were washed once with drug-free medium. Following the appropriate drug treatment, the cells were transferred to 96-well microtiter plates (10^4 cells per well, 8 wells per sample). Plates were then kept in the dark at 37° C. in a humidified atmosphere containing 5% CO2. The assay is based on the ability of viable cells to reduce a yellow soluble tetrazolium salt, 3-(4,5-dimethylthiazol-2-yl)-2,5-diphenyl-2H-tetrazolium bromide (MTT, Aldrich-Sigma), to an insoluble purple formazan precipitate. Following incubation of the plates for 4 days (to allow control cells to increase in number by approximately 10 fold), 20 μL of MTT solution (5 mg/mL in phosphate-buffered saline) was added to each well and the plates further incubated for 5 hours. The plates were then centrifuged for 5 minutes at 300 g and the bulk of the medium pipetted from the cell pellet leaving 10-20 μL per well. DMSO (200 μL) was added to each well and the samples agitated to ensure complete mixing. The optical density was then read at a wavelength of 550 nm on a Titertek Multiscan ELISA plate reader, and a dose-response curve was constructed.

[2] = test system: NF-Y binding at ICB2 of Topoisomerase IIα promoter; assay: NF-Y gel shift assay (EMSA) at ICB2
[3] = test system: 170 bp sequence of the human Topo-IIa promoter; assay: DNase I footprinting on Topo-IIa promoter (ICB1, ICB2 sites); type: binding; settings: for Concentration at which DNA binding is observed, ICB1: ICB1 site; for Concentration at which DNA binding is observed, ICB2: ICB2 site
Method: In a similar manner to Example 4, the affinity and sequence selectivity of certain compounds of examples 1 and 2 was evaluated by standard DNA footprinting on a 170 bp sequence of the human Topo-IIa promoter, in accordance with the technique described in Martin, C., et al.
Selected results are shown in FIG. 9, wherein the concentrations of the lanes were 0, 1.6, 8, 40, 200, 1000, 5000 and 25000 nM in each case.
The footprinting results allowed the identification of compounds that could potentially disrupt transcription factor binding at the ICB1 and ICB2 sites. […] These compounds are detailed below in table 3, showing the concentrations (μM) at which the PBD-heterocycle conjugates bind at ICB1 and ICB2.

Compound	Induced ΔTm after incubation 0 hours (calf thymus DNA (CT-DNA))	Induced ΔTm after incubation 4 hours (calf thymus DNA (CT-DNA))	Induced ΔTm after incubation 18 hours (calf thymus DNA (CT-DNA))	IC50 [1]	Lowest concentration at which NF-Y binding inhibition was observed [2]	Induced ΔTm after incubation 72 hours (calf thymus DNA (CT-DNA))	Concentration at which DNA binding is observed, ICB1 [3]	Concentration at which DNA binding is observed, ICB2 [3]
COC(=O)c1cc(NC(=O)c2cc(NC(=O)c3cc(NC(=O)c4cc(NC(=O)c5cc(NC(=O)CCCOc6cc7c(cc6OC)C(=O)N6CCC[C@H]6C=N7)cn5C)cn4C)cn3C)cn2C)cn1C [Compound 29, (11aS) Methyl 4-({4-[(4-{[4-({4-[4-(7-Methoxy-5-oxo-2,3,5,11a-tetrahydro-5H-pyrrolo[2,1-c][1,4]benzodiazepine-8-yloxy)-butyrylamino]-1-methyl-1H-pyrrole-2-carbonyl]-amino)-1-methyl-1H-pyrrole-2-carbonyl]-amino}-1-methyl-1H-pyrrole-2-carbonyl)-amino]-1-methyl-1H-pyrrole-2-carbonyl}-amino)-1-methyl-1H-pyrrole-2-carboxylate]	15.1 °C	15.9 °C	17.1 °C	83 nM	–	–	–	–
COC(=O)c1cc(NC(=O)c2nc(NC(=O)c3cc(NC(=O)CCCOc4cc5c(cc4OC)C(=O)N4CCC[C@H]4C=N5)cn3C)cn2C)cn1C [Compound 71]	15.5 °C	16.0 °C	16.9 °C	–	10 µM	17.2 °C	1 µM	5 µM
COC(=O)c1cc(NC(=O)c2csc(NC(=O)c3cc(NC(=O)CCCOc4cc5c(cc4OC)C(=O)N4CCC[C@H]4C=N5)cn3C)n2)cn1C [Compound 73]	18.5 °C	19.9 °C	20.7 °C	–	10 µM	20.9 °C	5 µM	1 µM
CCOC(=O)c1nc(NC(=O)c2nc(NC(=O)c3nc(NC(=O)CCCOc4cc5c(cc4OC)C(=O)N4CCC[C@H]4C=N5)cn3C)cn2C)cn1C [Compound 77]	11.0 °C	11.7 °C	12.0 °C	–	50 µM	12.1 °C	–	–
CCOC(=O)c1nc(NC(=O)c2cc(NC(=O)c3nc(NC(=O)CCCOc4cc5c(cc4OC)C(=O)N4CCC[C@H]4C=N5)cn3C)cn2C)cn1C [Compound 81]	14.9 °C	15.7 °C	16.2 °C	–	–	16.4 °C	–	–
CCOC(=O)c1csc(NC(=O)c2csc(NC(=O)c3csc(NC(=O)CCCOc4cc5c(cc4OC)C(=O)N4CCC[C@H]4C=N5)n3)n2)n1 [Compound 83]	10.0 °C	10.7 °C	10.9 °C	–	–	11.0 °C	–	–
CCOC(=O)c1csc(NC(=O)c2csc(NC(=O)c3cc(NC(=O)CCCOc4cc5c(cc4OC)C(=O)N4CCC[C@H]4C=N5)cn3C)n2)n1 [Compound 85]	7.5 °C	8.0 °C	8.4 °C	–	–	8.4 °C	–	–
CCOC(=O)c1csc(NC(=O)c2cc(NC(=O)c3csc(NC(=O)CCCOc4cc5c(cc4OC)C(=O)N4CCC[C@H]4C=N5)n3)cn2C)n1 [Compound 87]	6.4 °C	6.8 °C	7.1 °C	–	–	7.3 °C	–	–
CCOC(=O)c1csc(NC(=O)c2cc(NC(=O)c3cc(NC(=O)CCCOc4cc5c(cc4OC)C(=O)N4CCC[C@H]4C=N5)cn3C)cn2C)n1 [Compound 89]	16.8 °C	17.7 °C	18.6 °C	–	–	18.8 °C	–	–
